In patent US12011476B2, “Treatments of oxidative stress conditions” (The University of Vermont and State Agricultural College, priority 2012, dated 2024):

Legend:
Assay type in all cases: cell-based, murine
Fas-SSG [1] = assay: Immunoprecipitation of S-glutathionylated Fas (Fas-SSG) after FasL stimulation; conditions: FasL-stimulated cells, compared to the respective control (muscimol, DMSO, control siRNA)
Method: (§1) Exposure of cells to FasL: C10 cells were treated with 150 ng/ml FLAG-FasL (Alexis, San Diego, CA), plus 0.5 micrograms/ml anti-FLAG cross linking antibody, M2 (Sigma, St. Louis, MO). Primary lung fibroblasts and MTECs were treated with 300 ng/ml FasL, plus 1 microgram/ml M2. As reagent controls, cells were treated with M2 alone.
Immunoprecipitation of S-glutathionylated Fas: Immunoprecipitation of S-glutathionylated Fas was performed using established techniques.
C10 lung epithelial cells were stimulated with Flag tagged FasL plus anti-Flag (M2) crosslinking antibody, M2 alone (0), and at the indicated times, lysates were prepared and immunoprecipitated (IP) using an anti-GSH antibody. The subsequent western blot was probed with anti-Fas antibody (top panel). The +DTT control reflects lysates prepared from FasL-stimulated cells at 120 min treated with 25 mM DTT prior to IP with the anti-GSH antibody. Bottom panels: Content of Fas and Grx1 in whole cell lysates (WCL). […] C10 lung epithelial cells were stimulated with FasL plus M2 crosslinking antibody, or M2 alone, and at the indicated times, supernatants were collected. Free GSH was measured. * p<0.05 (ANOVA), compared to M2 controls at the same time points.

caspase 8 = assay: Caspase-Glo 8 assay after FasL stimulation; conditions: FasL-stimulated cells, compared to the respective control
Method: as §1
(§2) Caspase-Glo assay: Caspase-8 and caspase-3 activities were measured using a Caspase-Glo 8 and Caspase-Glo 3/7 (Promega, Madison, WI) reagents, respectively according to the manufacturer's protocol (Promega, Madison, WI). Results were expressed in Relative Luminescence Units (RLU), after subtraction of background luminescence values. All results were obtained from 3 independent experiments conducted in triplicate.

caspase 3 = assay: Caspase-Glo 3/7 assay after FasL stimulation; conditions: FasL-stimulated cells, compared to the respective control
Method: as §1, §2

C10 cells = assay: Cell viability assay (MTT) after FasL stimulation; conditions: MTT assay after stimulation with FasL
Method: Cell viability assay: C10 cells or primary lung fibroblasts were plated in 12-well dishes. The MTT (3-(4,5-dimethylthiazol-2-yl)-2,5-diphenyltetrazolium bromide) assay was performed using known techniques. Results were obtained from 3 independent experiments conducted in triplicate.
Cells were exposed to FasL, and cell lysates processed as in FIG. 1A. Western blots from WCL were sequentially probed for Fas, ERp57 and GSTP1. […] Cells were treated with FasL, and lysates processed as in FIG. 2B. […] Cells were transfected with ERp57 and GSTP1 siRNA (E+P), and 24 hours later were exposed to FasL+M2 crosslinking antibody (FL), or M2 alone for 30 min. Cell lysates were subjected to IP of the DISC. Western blots were sequentially probed for Fas, FADD, procaspase 8, ERp57 and GSTP1. WCL: assessment of the same proteins in whole cell lysates, as a control.

Fas-SH = assay: Labeling of free sulfhydryls of Fas (Fas-SH) with MPB, oxidative processing; conditions: FasL-stimulated cells
Method: Microscopy: Cells were fixed in 4% formalin and permeabilizied with 0.2% Triton-X100 in PBS. Permeabilized cells were blocked in PBS containing 2% BSA for 1 hour. Cells were sequentially incubated with primary antibodies (1:500-rabbit anti-ERp57/mouse anti-Fas) and secondary antibodies (1:1000-anti-rabbit-Alexa Fluor 488/anti-mouse Alexa Fluor 647). The nucleus was stained with DAPI (1:4000). Images were acquired using a Zeiss LSM 510 META Confocal Laser Scanning Imaging System. Images were captured at 40× magnification in oil immersion. The image files were converted to Tiff format. Brightness and contrast were adjusted equally in all images. Labeling of free sulfhydryls using biotinylated N-ethyl maleimide (MPB): Cells were lysed in HEPES buffer, pH 7.4 containing 0.5% NP40, with 150 micromolar MPB for 1 hour at ambient temperature. Lysates were centrifuged at 14,000 rpm and passed through a microbiospin (Bio-Rad) column to separate free MPB. The eluent whole cell lysate was immunoprecipitated using an anti-Fas antibody and sequentially probed using streptavidin HRP and anti-Fas antibody.
The transmembrane domain is underlined. ELD; extracellular ligand binding domain, CDD; Cytoplasmic Death Domain. […] C10 lung epithelial cells were treated with FasL. The lysates were labeled with MPB, and IPed using an anti-Fas antibody. […]

Fas-SSG [2] = assay: Cell fractionation and IP of Fas-SSG (ER vs cytosol/pm); conditions: FasL-stimulated cells, vs DMSO vehicle control, FIG. 3D
Method: Cell Fractionation: Cell fractionation was carried out using the Calbiochem ProteoExtractTR (Cat. No. 539790) subcellular proteome extraction kit per the manufacturer's protocol.
Proteins from each fraction were subjected to IP using anti-GSH antibody. Western blots were probed for Fas. 25 micrograms of total protein from each fractions were separated on a SDS-PAGE and probed for Fas, ERp57, GSTP1, Prx1 (cytosolic protein), Flotillinl (Flot1, plasma membrane protein), calreticulin (CRT, an ER restricted protein), histone H3 (nuclear marker). […] Cells were treated with FasL, stained with ERp57, Fas, and the nuclear marker, DAPI. Merged images indicate co-localization of Fas and ERp57. […] Proteins from fractions characterized in FIG. 3A were subjected to IP using anti-GSTP1 antibodies, or control IgG. […] Epithelial cells were treated with FasL, in the presence or absence of Brefeldin A. Cells were fractionated as in FIG. 3A, and proteins from each fraction were subjected to IP using anti-GSH antibody. Western blots were probed for Fas. 25 micrograms of total protein from each fraction was separated on a SDS-PAGE and probed for Fas, ERp57, GSTP1, Prx1 (cytosol), Flot1 (plasma membrane), CRT (ER), H3 (nucleus).

GSTP = target: T1, GSTP (Mus musculus, UniProt P19157); assay: GST activity assay (CDNB-GST) in treated cells; conditions: cells incubated with 50 micromolar for 2 hours, vs 0.2% DMSO, FIG. 5F
T1 construct: endogenous in cells; host or cells: murine lung epithelial cells (C10)
Method: GST activity assay: The GST activity was determined using a colorimetric activity assay kit (ab65326, Abcam, Cambridge, MA) based on the GST-catalyzed reaction between GSH and the GST substrate, CDNB (1-chloro-2,4-dinitrobenzene). The GST-catalyzed formation of CDNB-GSH produced a dinitrophenyl thioether which can be detected spectrophotometrically at 340 nm.
(§3) The results are expressed as nmol of CDNB […]/min/mg protein. * p<0.05 (Student t-test) compared to DMSO controls. […] Cells were pre-incubated TLK-199 or DMSO for 2 hours, prior to stimulation with FasL. Lysates were processed as in FIG. 1A. Inhibition of GSTP decreased the activities of caspases 8 (FIG. 5H) and 3 (FIG. 5I) induced by FasL. * p<0.05 ANOVA, compared to DMSO controls. […] Mus: muscimol control. * p<0.05 ANOVA, compared to TNF-alpha+CHX controls.

caspase-3 = assay: TNF-alpha plus cycloheximide (CHX) induced caspase-3 activation; conditions: pre-incubation before TNF-alpha in the presence of cycloheximide, FIG. 5J
Method: as §2
In addition to Fas, the extracellular/ligand binding domains of other members of the TNF receptor superfamily also contained cysteines that form intra-molecular disulfide bridges (—S—S—) to create the ligand binding domain. These experiments therefore determined whether ERp57-mediated oxidative processing regulates TNFR-dependent apoptosis. Cells were incubated with the ERp57 inhibitor, thiomuscimol prior to stimulation with TNF-alpha in the presence of cycloheximide (CHX) to induce apoptosis.
as §3

ERp57 = assay: Protein disulfide isomerase (PDI) assay, insulin reduction, lysates of treated cells
Method: Protein disulfide isomerase (PDI) assay: 10 micrograms of total cell lysates were incubated with folded insulin, fibril protein binding dye for 1 hr. The fluorescence was then measured in a microplate reader set at a excitation of 500 nm and an emission of 603 nm, per the manufacturer's protocol (Proteostat™ PDI assay kit ENZ-51024-KP002). All results were obtained from 3 independent experiments conducted in triplicate.
Pharmacologic inhibition of ERp57 and GSTP1 decreased Fas-SSG and caspase activation: next, the contribution of the catalytic activities of ERp57 and GSTP in mediating S-glutathionylation of Fas, and subsequent activation of caspases, was asessed.
The results are expressed as relative fluorescence units (RFU). * p<0.05 (Student t-test) compared to muscimol treated cells. […] Cell lysates were processed as in FIG. 1A to determine Fas-SSG (FIGS. 5D and 5E). Inhibition of ERp57 decreased caspase 8, and caspase 3 activities. * p<0.05 ANOVA, compared to muscimol-treated cells.

T1 sequence (P19157 2-210): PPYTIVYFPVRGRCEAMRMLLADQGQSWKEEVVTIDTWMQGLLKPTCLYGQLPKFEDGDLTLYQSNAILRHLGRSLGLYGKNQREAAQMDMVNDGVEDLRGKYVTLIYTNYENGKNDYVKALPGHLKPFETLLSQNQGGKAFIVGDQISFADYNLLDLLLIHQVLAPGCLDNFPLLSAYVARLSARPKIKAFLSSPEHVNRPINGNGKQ

Structure (SMILES) | Fas-SSG in response to FasL (Fas-SSG [1]) | caspase 8 activity in response to FasL (caspase 8) | caspase 3 activity in response to FasL (caspase 3) | TNF-alpha/CHX-mediated activation of caspase-3 (caspase-3) | also measured
CC(=O)OCOC(=O)CN(CC(=O)OCOC(C)=O)c1ccccc1OCCOc1ccccc1N(CC(=O)OCOC(C)=O)CC(=O)OCOC(C)=O [BAPTA-AM] | substantially diminished | decreased | decreased |  | cell survival / cell death in response to FasL (C10 cells): increased cell survival; Fas-SH content (oxidative processing of Fas) after FasL (Fas-SH): completely prevented the loss of Fas-SH groups
C[C@H]1CCC/C=C/[C@@H]2C[C@H](O)C[C@H]2[C@H](O)/C=C/C(=O)O1 [Brefeldin A] |  |  |  |  | movement of Fas-SSG from ER to cytosol/pm (Fas-SSG [2]): Fas-SSG remained restricted to the ER fraction
CCOC(=O)[C@@H](N)CCC(=O)N[C@@H](CSCc1ccccc1)C(=O)N[C@@H](C(=O)OCC)c1ccccc1 [TLK199, gamma-glutamyl-S-(benzyl)cysteinyl-R-phenyl glycine diethyl ester] | diminished | diminished | diminished |  | decrease in GSTP activity (GSTP): 80%
CC1(C)CC(=O)CC(=O)C1 [dimedone, 5,5-dimethyl-1,3-cyclohexanedione] | abolished |  |  |  | 
NCc1cc(=O)[nH]o1 [muscimol] |  |  |  | did not affect apoptosis | 
NCc1cc(O)ns1 [thiomuscimol, 5-aminomethyl-3-isothiazolol] | significantly attenuated | corresponding decreases | corresponding decreases | significantly decreased | inhibition of ERp57, as measured by RFU (ERp57; FIG. 10, THM vs DMSO, lysates incubated with Bacitracin for 2 hrs as positive control): exhibited inhibition of ERp57; decrease in insulin reducing activity (ERp57; epithelial cells incubated with thiomuscimol (10 micromolar), compared to muscimol controls, FIG. 5A): ~50%
